Source: patent publication US20170158702A1, “MULTIVALENT RAS BINDING COMPOUNDS” (KYRAS THERAPEUTICS, INC., priority 2015, published 2017)
Where a name gives a salt, the structure may show the parent alone.

Key:
Type in all cases: cell-based
MIA PaCa-2 = experiment: Viability assay with MIA PaCa-2; conditions: MIA PaCa-2, viability assay per Example 57
Summary of the method: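 MIA PaCa-2 cells were seeded at 1200/well, allowed to adhere overnight, then treated in triplicate with 9-point 2-fold compound dilutions at 0.5% final DMSO. Viability was measured as cellular ATP by CellTiter-Glo luminescence 72 h after compound addition.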

HT-29 = experiment: Viability assay with HT-29; conditions: HT-29, viability assay per Example 57
Experimental: NCI-H460 (Epithelial lung tissue; carcinoma; large cell lung cancer) were cultured in RPMI Medium 1640 (Invitrogen-22400105) supplemented with 10% fetal bovine serum (FBS; Invitrogen-10099141). All the cell lines were maintained in a humidified incubator at 37° C. with 5% CO2. Cell culture media and supplements were purchased from Invitrogen, and tissue culture flasks were purchased from Corning, 96-well plates were purchased from Greiner. CellTiter-Glo Luminescent Cell Viability Assay kits were purchased from Promega (Promega-G7573), cells counter Vi-Cell was purchased from Beckman, D300e digital dispenser was purchased from Tecan, detection instrument Envision was purchased from PerkinElmer.
Paclitaxel was purchased from SELLECK, test compounds, such as any one of the compounds disclosed herein, attained solubility in DMSO and when diluted into culture media. DMSO, solutions containing the test compounds, and culture media were warmed to 37° C. or room temperature for the solution preparation and dilutions.
NCI-H460 Cell line were seeded in 96-well plates (1200/well) and allowed to adhere to overnight (100 uL/well), for drug treatments with 2 fold dilution, 9 dose points, triplicates or vehicle control, compound stock solutions were prepared in DMSO and use D300e digital dispenser to add compounds to the wells to give the indicated final drug concentrations. Final DMSO concentration was 0.5%. Cellular ATP concentrations were assessed by using the CellTiter-Glo Cell Viability Assay as per the manufacturer's instructions 72 h after compounds addition. Additional cells lines were assayed with any one of the compounds disclosed herein according to the procedures described for the viability assay with NCI-H460.
A viability assay with HT-29 (Colorectal adenocarcinoma) was performed with compounds listed in Table 18 according to the procedures described in Example 57.

NCI-H460 = experiment: Viability assay with NCI-H460 (CellTiter-Glo cytotoxicity assay, 72 h); conditions: NCI-H460 cell line, 72 h after compounds addition
Summary of the method: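 NCI-H460 cells, RPMI 1640 + 10% FBS, seeded 1200/well and adhered overnight, then exposed to compounds at 9 points, 2-fold dilution, in triplicate, 0.5% DMSO final. Cellular ATP measured by CellTiter-Glo luminescence 72 h after addition.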

Row | EC50 (MIA PaCa-2) [µM] | EC50 (HT-29) [µM] | Compound | EC50 (NCI-H460) [µM]
1 | ≤ 5 | ≤ 5 | NCCCn1cc(-c2ccc(OC(F)(F)F)cc2CN)c2cc(CN3CCC4(CCCN(Cc5ccccc5Cl)C4)CC3)ccc21 [C253; HCl] | ≤ 5
2 | ≤ 5 | ≤ 5 | COc1cccc(OC2CCN(Cc3ccc4c(c3)c(-c3ccc(OC(F)(F)F)cc3CN)cn4CCCN)CC2)c1 [C280; HCl] | ≤ 5
3 | ≤ 5 | ≤ 5 | NCCCn1cc(-c2ccc(OC(F)(F)F)cc2CN)c2cc(CN3CCC(CC(F)(F)F)CC3)ccc21 [C252; HCl] | ≤ 5
4 | 5 to 10 | 5 to 10 | Cn1cc(-c2cn(CCCN)c3ccc(CN4CCN(Cc5ccccc5Cl)CC4)cc23)cn1 [C191; HCl] | 5 to 10
5 | ≤ 5 | ≤ 5 | NCc1cc(OC(F)(F)F)ccc1-c1cn(CC2CCNCC2)c2ccc(CN3CCN(Cc4ccccc4Cl)CC3)cc12 [C237; HCl] | ≤ 5
6 | ≤ 5 | ≤ 5 | Cc1ccc(-c2cn(CCCN)c3ccc(CN4CCN(Cc5ccccc5Cl)CC4)cc23)c(CN)c1 [C223; HCl] | ≤ 5
7 | ≤ 5 | ≤ 5 | CCC1CCN(S(=O)(=O)c2ccc3c(c2)c(-c2ccc(OC)cc2CN)cn3CCCN)CC1 [C270; HCl] | ≤ 5
8 | ≤ 5 | ≤ 5 | CCCCn1cc(-c2ccc(OC(F)(F)F)cc2CN)c2cc(CN3CCN(Cc4ccccc4Cl)CC3)ccc21 [C227; HCl] | ≤ 5
9 | 5 to 10 | 5 to 10 | NCCCn1cc(-c2ccc(OC(F)(F)F)cc2CN)c2cc(CN3CCCC(NCC(F)(F)F)C3)ccc21 (stereo not drawn) [C276; HCl] | ≤ 5
10 | ≤ 5 | ≤ 5 | COc1cccc(CC2(CO)CCN(Cc3ccc4c(c3)c(-c3ccc(OC(F)(F)F)cc3CN)cn4CCCN)CC2)c1 [C294; HCl] | ≤ 5
11 | ≤ 5 | ≤ 5 | COc1ccc(-c2cn(CCCN)c3ccc(CN4CCN(Cc5ccccc5Cl)CC4)cc23)c(CNS(C)(=O)=O)c1 [C287; HCl] | ≤ 5
12 | ≤ 5 | ≤ 5 | Cc1cccnc1CN1CCN(Cc2ccc3c(c2)c(-c2ccc(OC(F)(F)F)cc2)cn3CCCN)CC1 [C145; HCl] | ≤ 5
13 | ≤ 5 | ≤ 5 | COc1ccc(-c2cn(CCCN)c3ccc(CN4CCN(Cc5ccccc5Cl)CC4)cc23)nc1 [C196; HCl] | ≤ 5
14 | ≤ 5 | ≤ 5 | NCc1cc(OC(F)(F)F)ccc1-c1cn(C2CCNCC2)c2ccc(CN3CCN(Cc4ccccc4Cl)CC3)cc12 [C254; HCl] | ≤ 5
15 | ≤ 5 | ≤ 5 | COc1cccc(NC2CCN(Cc3ccc4c(c3)c(-c3ccc(OC(F)(F)F)cc3CN)cn4CCCN)CC2)c1 [C277; HCl] | ≤ 5
16 | ≤ 5 | ≤ 5 | NCCCn1cc(-c2ccc(OC(F)(F)F)cc2CN)c2cc(CN3CCC4(CCN(Cc5ccccc5Cl)CC4)C3)ccc21 [C250; HCl] | ≤ 5

Row | EC50 (MIA PaCa-2) [µM] | EC50 (HT-29) [µM] | Compound | EC50 (NCI-H460) [µM]
17 | ≤ 5 | ≤ 5 | NCCCn1cc(-c2ccc(OC(F)(F)F)cc2)c2cc(CN3CCN(Cc4ncccc4Cl)CC3)ccc21 [C151; HCl] | ≤ 5
18 | ≤ 5 | ≤ 5 | COc1cc(OC)cc(OC2CCN(Cc3ccc4c(c3)c(-c3ccc(OC(F)(F)F)cc3CN)cn4CCCN)CC2)c1 [C281; HCl] | ≤ 5
19 | ≤ 5 | ≤ 5 | FC(F)(F)Oc1ccc(-c2cn(CC3CCNCC3)c3ccc(CN4CCC(Cc5ccccc5Cl)CC4)cc23)cc1 [C228; HCl] | ≤ 5
20 | 5 to 10 | 5 to 10 | FC(F)(F)Oc1ccc(-c2cn(CCNc3ccccn3)c3ccc(CN4CCN(Cc5ccccc5Cl)CC4)cc23)cc1 [C199; HCl] | 5 to 10
21 | ≤ 5 | ≤ 5 | COc1cccc(CC2CCN(Cc3ccc4c(c3)c(-c3ccc(OC(F)(F)F)cc3CN)cn4CCCN)CC2)c1 [C262; HCl] | ≤ 5
22 | 5 to 10 | ≤ 5 | COc1cccc(CCCCN(C)Cc2ccc3c(c2)c(-c2ccc(OC(F)(F)F)cc2CN)cn3CCCN)c1 [C298; HCl] | ≤ 5
23 | 5 to 10 | 5 to 10 | Cc1ncc(CN2CCN(Cc3ccc4c(c3)c(-c3ccc(OC(F)(F)F)cc3)cn4CCCN)CC2)n1C [C194; HCl] | 5 to 10
24 | ≤ 5 | ≤ 5 | NCCCn1cc(-c2ccc(OC(F)(F)F)cc2)c2cc(CN3CCN(Cc4ccc(Cl)cc4Cl)CC3)ccc21 [C135; HCl] | ≤ 5
25 | ≤ 5 | ≤ 5 | CC(=O)NCc1cc(OC(F)(F)F)ccc1-c1cn(CCCN)c2ccc(CN3CCN(Cc4ccccc4Cl)CC3)cc12 [C271; HCl] | ≤ 5
26 | ≤ 5 | ≤ 5 | COc1cccc(CN(C)CCN(C)Cc2ccc3c(c2)c(-c2ccc(OC(F)(F)F)cc2CN)cn3CCCN)c1 [C296; HCl] | ≤ 5
27 | 5 to 10 | 5 to 10 | NCCCn1cc(-c2c(F)cccc2C(N)=O)c2cc(CN3CCN(Cc4ccccc4Cl)CC3)ccc21 [C289; HCl] | 5 to 10
28 | ≤ 5 | ≤ 5 | COc1cc(CN(C)CCN(C)Cc2ccc3c(c2)c(-c2ccc(OC(F)(F)F)cc2CN)cn3CCCN)cc(OC)c1 [C297; HCl] | ≤ 5
29 | ≤ 5 | ≤ 5 | Cc1cc(Cl)ccc1CN1CCN(Cc2ccc3c(c2)c(-c2ccc(OC(F)(F)F)cc2)cn3CCCN)CC1 [C139; HCl] | ≤ 5
30 | ≤ 5 | ≤ 5 | NCCCn1cc(-c2ccc(OC(F)(F)F)cc2CN)c2cc(CN3CCS(=O)(=O)CC3)ccc21 [C288; HCl] | ≤ 5
31 | ≤ 5 | ≤ 5 | NCC(=O)N1CCC(n2cc(-c3ccc(OC(F)(F)F)cc3)c3cc(CN4CCN(Cc5ccccc5Cl)CC4)ccc32)CC1 [C203; HCl] | ≤ 5
32 | 5 to 10 | 5 to 10 | NCCCn1cc(-c2cc[nH]n2)c2cc(CN3CCN(Cc4ccccc4Cl)CC3)ccc21 [C190; HCl] | 5 to 10

Row | Compound | EC50 (MIA PaCa-2) [µM] | EC50 (HT-29) [µM] | EC50 (NCI-H460) [µM]
33 | NCCCn1cc(-c2ccc(OC(F)(F)F)cc2)c2cc(CN3CCC(Nc4cccc(Cl)c4)CC3)ccc21 [C214; Formic Acid] | ≤ 5 | ≤ 5 | ≤ 5
34 | FC(F)(F)Oc1ccc(-c2cn(CCCNc3ccccn3)c3ccc(CN4CCN(Cc5ccccc5Cl)CC4)cc23)cc1 [C208; Formic Acid] | 5 to 10 | 5 to 10 | ≤ 5
35 | NCc1cccc(-n2cc(-c3ccc(OC(F)(F)F)cc3)c3cc(CN4CCN(Cc5ccccc5Cl)CC4)ccc32)c1 [C150; Formic acid] | ≤ 5 | ≤ 5 | ≤ 5
36 | NCCCn1cc(-c2ccc(CO)cc2)c2cc(CN3CCN(Cc4ccccc4Cl)CC3)ccc21 [C142; Formic Acid] | 5 to 10 | 5 to 10 | ≤ 5
37 | NCCCn1cc(-c2ccc(OC(F)(F)F)cc2CN)c2cc(S(=O)(=O)N3CCN(Cc4ccccc4Cl)CC3)ccc21 [C245; Formic Acid] | ≤ 5 | ≤ 5 | ≤ 5
38 | NCc1cc(-n2cc(-c3ccc(OC(F)(F)F)cc3)c3cc(CN4CCN(Cc5ccccc5Cl)CC4)ccc32)ccn1 [C229; Formic Acid] | ≤ 5 | ≤ 5 | ≤ 5
39 | NCCCn1cc(-c2ccc(OC(F)(F)F)cc2)c2cc(CN3CCC(Nc4ccccc4Cl)CC3)ccc21 [C213; Formic Acid] | ≤ 5 | ≤ 5 | ≤ 5
40 | NCc1ccc(-n2cc(-c3ccc(OC(F)(F)F)cc3)c3cc(CN4CCN(Cc5ccccc5Cl)CC4)ccc32)cc1 [C149; Formic Acid] | ≤ 5 | ≤ 5 | ≤ 5
41 | NCCCn1cc(-c2ccc(OC(F)(F)F)cc2)c2cc(Nc3ccc(Nc4ccccc4Cl)nc3)ccc21 [C246; Formic Acid] | 5 to 10 | 10 to 30 | 5 to 10
42 | FC(F)(F)Oc1ccc(-c2cn(CCCCNc3ccccn3)c3ccc(CN4CCN(Cc5ccccc5Cl)CC4)cc23)cc1 [C202; Formic Acid] | 5 to 10 | 5 to 10 | ≤ 5
43 | Nc1ccc(Cn2cc(-c3ccc(OC(F)(F)F)cc3)c3cc(CN4CCN(Cc5ccccc5Cl)CC4)ccc32)cc1 [C220; Formic Acid] | 5 to 10 | 5 to 10 | 5 to 10
44 | NCCCn1cc(-c2ccc(OC(F)(F)F)cc2N)c2cc(CN3CCN(Cc4ccccc4Cl)CC3)ccc21 [C239; Formic Acid] | ≤ 5 | ≤ 5 | ≤ 5
